{"source": "patent US20230149540A1", "about": "“VACCINE PLATFORM FOR THE INDUCTION OF SYSTEMIC IMMUNE RESPONSES” (The Board of Trustees of the Leland Stanford Junior …, priority 2020, published 2023)", "key": {"[1]": {"system": "human MAIT cells", "test": "In vitro MAIT cell activation, IFN-γ secretion (FIG. 7)", "assay_type": "cell-based", "settings": "stimulated for 18 h", "protocol": "(§1) FIG. 7. In vitro exposure of human or rhesus macaque MAIT cells to their cognate antigen (5-OP-RU) (a highly unstable molecule) or microspheres loaded with 5-OP-RU-loaded MR-1 monomer induced IFN-γ secretion. Representative pseudocolor plots shown are gated on live CD8^+ T cells. Human and rhesus macaque cells were stimulated for 18 h.\n(§2) Activation of innate-like T cells and effector memory T cells can be achieved by presentation of their antigen in the context of the appropriate MHC molecule. Streptavidin-coated microspheres were linked to biotinylated monomers of CD1d (type I NKT cells) or MR1 (MAIT cells) to test for induction of activation of these innate-like T cells. […] We then performed an experiment in which mice were intravenously administrated CABs loaded with αGC (positive control), which would induce the expansion of NKT cells, CD1d-αGC-coated microspheres (test group), or were left untreated (negative control) (FIG. 8)."}, "[2]": {"system": "rhesus macaque MAIT cells", "test": "In vitro MAIT cell activation, IFN-γ secretion (FIG. 7)", "assay_type": "cell-based", "settings": "stimulated for 18 h", "protocol": "as §1, §2"}}}
{"smiles": "CC(=O)C=Nc1c(NC[C@H](O)[C@H](O)[C@H](O)CO)[nH]c(=O)[nH]c1=O", "note": "[5-OP-RU]", "values": [{"measurement": "secretion of IFN-γ by MAIT cells", "setting": "[1]", "value": "induce secretion of IFN-γ to a similar extent"}, {"measurement": "secretion of IFN-γ by MAIT cells", "setting": "[2]", "value": "induce secretion of IFN-γ to a similar extent"}]}
